Experimental data taken from ChEMBL document CHEMBL1201862, “PubChem BioAssay data set” (2004).
The source made the active and inactive calls. Where a SMILES comes first, the peptide text is derived from it. [ ]: non-standard residue; d: D form. The star is where a group is joined. Ac5c = NC1(C(=O)O)CCCC1; Cbz = O=C(OCc1ccccc1)*

Columns and labels:
Nonstructural protein 1 = Nonstructural protein 1 (Influenza A virus, UniProt Q194T2); assay type: functional, Influenza A virus (A/California/07/2009(H1N1))
Sequence of Nonstructural protein 1 (Q194T2 whole entry): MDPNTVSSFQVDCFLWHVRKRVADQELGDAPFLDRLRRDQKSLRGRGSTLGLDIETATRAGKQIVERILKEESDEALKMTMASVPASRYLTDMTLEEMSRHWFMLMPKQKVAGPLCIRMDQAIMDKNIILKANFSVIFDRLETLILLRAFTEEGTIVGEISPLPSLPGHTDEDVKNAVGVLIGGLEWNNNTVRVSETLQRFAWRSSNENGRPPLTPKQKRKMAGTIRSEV

Leucine aminopeptidase = target: T1, Leucine aminopeptidase (Plasmodium falciparum 3D7, UniProt Q8IL11); experiment: P. falciparum M17LAP inhibitors, primary screen, biochemical, fluorogenic H-Leu-NHMec substrate, 1536-well (AID 1619); assay type: functional
T1 sequence (Q8IL11 whole entry): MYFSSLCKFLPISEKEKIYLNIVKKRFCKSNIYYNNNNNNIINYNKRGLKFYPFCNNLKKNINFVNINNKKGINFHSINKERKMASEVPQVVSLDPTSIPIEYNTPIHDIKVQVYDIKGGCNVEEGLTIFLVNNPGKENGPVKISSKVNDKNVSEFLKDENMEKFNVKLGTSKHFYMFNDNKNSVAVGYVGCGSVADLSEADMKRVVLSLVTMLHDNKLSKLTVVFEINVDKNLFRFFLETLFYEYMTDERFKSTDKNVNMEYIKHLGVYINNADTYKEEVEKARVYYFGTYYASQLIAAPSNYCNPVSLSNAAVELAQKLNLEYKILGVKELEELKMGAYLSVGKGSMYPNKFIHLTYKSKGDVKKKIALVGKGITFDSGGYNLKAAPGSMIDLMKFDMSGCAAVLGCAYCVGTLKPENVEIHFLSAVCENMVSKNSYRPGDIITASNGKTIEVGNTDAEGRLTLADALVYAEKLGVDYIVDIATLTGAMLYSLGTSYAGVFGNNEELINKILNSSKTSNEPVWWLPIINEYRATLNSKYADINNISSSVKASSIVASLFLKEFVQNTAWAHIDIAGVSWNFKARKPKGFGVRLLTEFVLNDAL

[1] = target: DNA dC->dU-editing enzyme APOBEC-3A (Homo sapiens, UniProt P31941); experiment: Dose Response confirmation of small molecule APOBEC3A DNA Deaminase Inhibitors via a fluorescence-based single-stranded DNA deaminase assay. [Related pubchem assays (depositor defined):AID493011, AID493024]; assay type: functional
Sequence of DNA dC->dU-editing enzyme APOBEC-3A (P31941 whole entry): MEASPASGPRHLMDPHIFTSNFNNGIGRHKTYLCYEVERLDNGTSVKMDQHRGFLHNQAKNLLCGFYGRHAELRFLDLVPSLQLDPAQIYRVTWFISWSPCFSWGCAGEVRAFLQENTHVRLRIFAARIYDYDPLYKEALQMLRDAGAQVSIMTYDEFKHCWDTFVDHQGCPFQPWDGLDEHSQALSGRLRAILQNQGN

[2] = target: DNA dC->dU-editing enzyme APOBEC-3G (Homo sapiens, UniProt Q9HC16); assay type: functional;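 further: Dose-response counterscreen measuring inhibition of APOBEC3G DNA deaminase activity, run while confirming APOBEC3A inhibitors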
Sequence of DNA dC->dU-editing enzyme APOBEC-3G (Q9HC16 whole entry): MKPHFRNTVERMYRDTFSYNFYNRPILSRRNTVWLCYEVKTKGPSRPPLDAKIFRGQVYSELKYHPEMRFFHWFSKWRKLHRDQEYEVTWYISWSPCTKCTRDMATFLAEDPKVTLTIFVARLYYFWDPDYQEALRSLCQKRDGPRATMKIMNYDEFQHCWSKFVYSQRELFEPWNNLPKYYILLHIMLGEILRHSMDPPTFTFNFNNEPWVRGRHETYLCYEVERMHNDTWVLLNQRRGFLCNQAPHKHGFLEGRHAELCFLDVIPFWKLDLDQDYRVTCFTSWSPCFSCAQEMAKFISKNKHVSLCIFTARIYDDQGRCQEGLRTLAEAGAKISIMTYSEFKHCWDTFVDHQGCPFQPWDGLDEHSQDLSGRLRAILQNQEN

[3] = target: T2, Heat shock factor protein 1 (Mus musculus, UniProt P38532); experiment: HSF1 potentiators in luciferase reporter cells, confirmation, cell-based, NIH3T3, luminescence, dose retest (AID 435004); assay type: functional;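 further: stress induced by proteasome inhibitor MG132 added 30 min after compound; luciferase reporter driven by HSF1 response element in NIH3T3 cells; actives raise luminescence as potentiators of the MG132 stress response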
T2 sequence (P38532 whole entry): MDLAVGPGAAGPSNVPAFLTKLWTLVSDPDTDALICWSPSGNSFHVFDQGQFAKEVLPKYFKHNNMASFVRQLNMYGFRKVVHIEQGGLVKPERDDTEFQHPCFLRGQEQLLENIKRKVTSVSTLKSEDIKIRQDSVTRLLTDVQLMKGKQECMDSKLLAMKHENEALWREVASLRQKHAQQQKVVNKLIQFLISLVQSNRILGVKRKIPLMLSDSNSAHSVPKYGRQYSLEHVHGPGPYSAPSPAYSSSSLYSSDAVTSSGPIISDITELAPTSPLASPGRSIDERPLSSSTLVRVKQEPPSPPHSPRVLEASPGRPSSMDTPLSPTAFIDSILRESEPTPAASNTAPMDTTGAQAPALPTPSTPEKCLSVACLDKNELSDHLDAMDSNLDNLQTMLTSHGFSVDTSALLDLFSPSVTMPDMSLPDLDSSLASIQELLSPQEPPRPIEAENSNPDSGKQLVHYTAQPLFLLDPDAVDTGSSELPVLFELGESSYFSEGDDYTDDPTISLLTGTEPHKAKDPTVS

[4] = microbe, parasite or virus in culture; assay type: functional; conditions: Mycobacterium tuberculosis
Prothrombin = Prothrombin (Homo sapiens, UniProt P00734); experiment: Thrombin 1536 HTS Dose Response Confirmation. [Related pubchem assays: 1046 (Thrombin 1536 HTS; hits were confirmed in this assay)]; assay type: functional
[5] = target: T3, RNA-binding protein pos-1 (Caenorhabditis elegans, UniProt G5EF15); experiment: inhibitors of POS-1/mex-3 RNA binding, dose response, biochemical, fluorescence polarization (AID 1964);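 further: purified POS-1 fused to maltose binding protein made in E. coli; potency of compounds blocking POS-1 binding to fluorescent RNA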
T3 sequence (G5EF15 whole entry): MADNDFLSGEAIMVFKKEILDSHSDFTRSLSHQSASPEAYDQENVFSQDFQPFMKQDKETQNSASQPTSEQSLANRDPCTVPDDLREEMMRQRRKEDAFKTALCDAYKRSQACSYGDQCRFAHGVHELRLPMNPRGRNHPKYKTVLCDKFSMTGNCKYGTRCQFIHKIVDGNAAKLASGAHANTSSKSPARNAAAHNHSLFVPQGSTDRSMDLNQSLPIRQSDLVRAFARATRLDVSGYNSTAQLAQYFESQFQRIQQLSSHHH

[6] = target: T4, Zinc finger protein mex-5 (Caenorhabditis elegans, UniProt Q9XUB2); experiment: MEX-5/TCR-2 RNA interaction inhibitors, dose response, biochemical, C. elegans, fluorescence polarization (AID 1960)
T4 sequence (Q9XUB2 whole entry): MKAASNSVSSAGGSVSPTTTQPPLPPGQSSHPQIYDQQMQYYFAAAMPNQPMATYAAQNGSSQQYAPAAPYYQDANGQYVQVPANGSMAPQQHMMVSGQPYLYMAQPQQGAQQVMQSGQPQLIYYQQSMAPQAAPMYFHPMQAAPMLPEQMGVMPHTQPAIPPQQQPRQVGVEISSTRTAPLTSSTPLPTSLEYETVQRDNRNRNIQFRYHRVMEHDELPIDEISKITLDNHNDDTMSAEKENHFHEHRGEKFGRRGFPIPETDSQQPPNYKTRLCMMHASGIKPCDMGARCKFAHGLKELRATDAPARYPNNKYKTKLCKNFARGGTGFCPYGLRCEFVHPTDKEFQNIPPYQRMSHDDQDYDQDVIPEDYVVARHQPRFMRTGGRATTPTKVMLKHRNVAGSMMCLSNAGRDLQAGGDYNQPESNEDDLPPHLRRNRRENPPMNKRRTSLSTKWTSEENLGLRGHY

Protein skinhead-1 = target: T5, Protein skinhead-1 (Caenorhabditis elegans, UniProt P34707); assay type: functional
T5 sequence (P34707 whole entry): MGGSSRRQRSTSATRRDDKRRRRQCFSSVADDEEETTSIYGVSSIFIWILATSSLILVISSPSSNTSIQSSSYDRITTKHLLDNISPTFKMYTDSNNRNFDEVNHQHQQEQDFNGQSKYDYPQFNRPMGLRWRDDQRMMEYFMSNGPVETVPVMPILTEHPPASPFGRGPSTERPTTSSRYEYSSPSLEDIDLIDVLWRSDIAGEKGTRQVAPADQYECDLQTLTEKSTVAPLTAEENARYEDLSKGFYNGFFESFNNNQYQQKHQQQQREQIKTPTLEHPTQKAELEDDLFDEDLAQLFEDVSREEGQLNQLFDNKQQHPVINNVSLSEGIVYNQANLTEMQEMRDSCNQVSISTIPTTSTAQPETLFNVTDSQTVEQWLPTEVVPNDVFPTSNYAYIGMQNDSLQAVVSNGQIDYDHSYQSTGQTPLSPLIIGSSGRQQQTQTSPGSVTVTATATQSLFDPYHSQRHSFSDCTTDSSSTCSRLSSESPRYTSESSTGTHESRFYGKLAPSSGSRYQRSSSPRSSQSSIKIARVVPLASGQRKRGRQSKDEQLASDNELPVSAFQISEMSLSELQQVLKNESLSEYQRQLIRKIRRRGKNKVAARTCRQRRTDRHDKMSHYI

[7] = Shn3 3'UTR reporter inhibitors, dose response, cell-based, Clone20 osteoblasts, firefly luciferase, cherry-picked (AID 624132); assay type: functional;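 further: firefly luciferase luminescence from reporter carrying the Shn3 3'UTR in osteoblasts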
[8] = control 3'UTR Renilla luciferase suppression, dose response, counter-screen for Shn3 inhibitor project, cell-based, Clone20-Shn3RL, cherry-picked (AID 624133); assay type: functional
[9] = target: FAD-linked sulfhydryl oxidase ALR (Homo sapiens, UniProt P55789); experiment: inhibitors of human ALR sulfhydryl oxidase, dose response, biochemical, H2O2 detection, luminescence, cherry-pick (AID 493248)
Sequence of FAD-linked sulfhydryl oxidase ALR (P55789 whole entry, the tested form may be a part): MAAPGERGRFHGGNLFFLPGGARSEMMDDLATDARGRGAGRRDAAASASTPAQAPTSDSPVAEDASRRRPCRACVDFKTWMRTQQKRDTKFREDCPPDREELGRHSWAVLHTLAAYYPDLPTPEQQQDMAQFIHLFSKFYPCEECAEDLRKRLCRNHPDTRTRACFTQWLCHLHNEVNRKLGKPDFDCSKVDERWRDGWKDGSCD

[10] = inhibitors of clade B AD8 Env fusion, dose response, cell-based, cherry-pick (AID 652062); assay type: functional;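 further: luciferase signal from cell-cell fusion driven by HIV-1 clade B AD8 Env; potency is for inhibitors of fusion seen as a drop in luminescence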
[11] = off-target signal loss in HeLa-CEM21 co-culture – HeLa F-luc CTL cells, cherry-picked, counter-screen for HIV-1 Env fusion inhibitor project, dose response (AID 652040); assay type: functional, cell-based;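 further: potency for signal decrease marking cytotoxic or nonspecific inhibition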
Large T antigen = Large T antigen (Simian virus 40, UniProt P03070); assay type: functional, Betapolyomavirus macacae;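 further: Confirmatory-stage PubChem screen for compounds that inhibit SV40 T antigen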
Sequence of Large T antigen (P03070 whole entry): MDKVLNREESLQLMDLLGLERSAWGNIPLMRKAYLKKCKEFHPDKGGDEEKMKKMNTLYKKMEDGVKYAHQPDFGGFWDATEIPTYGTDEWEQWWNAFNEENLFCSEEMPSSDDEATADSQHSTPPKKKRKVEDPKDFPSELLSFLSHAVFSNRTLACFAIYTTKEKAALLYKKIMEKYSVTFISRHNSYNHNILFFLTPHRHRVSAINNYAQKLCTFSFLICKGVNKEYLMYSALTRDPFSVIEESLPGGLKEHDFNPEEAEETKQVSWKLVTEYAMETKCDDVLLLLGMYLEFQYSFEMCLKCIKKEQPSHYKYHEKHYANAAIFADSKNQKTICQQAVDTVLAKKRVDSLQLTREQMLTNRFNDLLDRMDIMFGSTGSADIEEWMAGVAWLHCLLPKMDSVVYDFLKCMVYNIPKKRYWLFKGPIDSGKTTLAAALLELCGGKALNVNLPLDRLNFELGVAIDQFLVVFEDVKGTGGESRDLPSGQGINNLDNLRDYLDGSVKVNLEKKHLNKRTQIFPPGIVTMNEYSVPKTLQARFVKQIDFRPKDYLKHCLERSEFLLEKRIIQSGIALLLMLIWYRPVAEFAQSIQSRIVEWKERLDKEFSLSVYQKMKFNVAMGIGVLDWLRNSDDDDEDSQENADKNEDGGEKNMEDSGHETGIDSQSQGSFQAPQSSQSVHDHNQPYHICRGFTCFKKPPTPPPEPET

COc1ccc(N2CCN(C(CNS(=O)(=O)c3ccc(C)cc3)c3ccccc3)CC2)cc1 (centres undefined)
IC50 (Nonstructural protein 1): > 100 µM (active)

O=C(CSc1nc(O)cc(-c2ccccc2)n1)Nc1ccccn1
IC50 (Leucine aminopeptidase): 8.69 µM (active)

C[n+]1cccc(C(=O)NCC2CCCO2)c1 (centres undefined)
IC50 [1]: 2.55 µM (active) | IC50 [2]: 4.44 µM (active)

O=C(CSC1=NCCS1)NC1CCCCC1
IC50 [1]: 3.67 µM (active) | IC50 [2]: 3.76 µM (active)

COc1ccc2cc(/C=C/C(=O)N3CCN(CC(=O)N4CCCCCC4)CC3)ccc2c1
EC50 [3]: > 260 µM (inactive)

O=C(CCn1c(=O)c2cccn2c2cccnc21)N1CCN(c2cccc(Cl)c2)CC1
CC50 [4]: > 40 µM (active)

CC(C)(C)c1ccc(NC(=O)C2=CN3CCS(=O)(=O)N=C3C=C2)cc1
IC50 [1]: 5.24 µM (active) | IC50 [2]: 8.51 µM (active)

CC(=O)OCC1(C)CN(c2ccccc2)N(C(=O)c2ccc(C(C)(C)C)cc2)C1=O (centres undefined)
IC50 (Prothrombin): 18 µM (active)

COc1ccc(NC(=O)C(=O)N2N=C3CCCCC3C2(O)C(F)(F)F)cc1 (centres undefined)
IC50 [1]: 6.08 µM (active) | IC50 [2]: 6.97 µM (active)

Cc1ccc(S(=O)(=O)N2CC(O)C[C@H]2C(=O)OCC(=O)Nc2ccc(N3CCCCC3)cc2)cc1C (some centres undefined)
IC50 (Nonstructural protein 1): 62.8 µM (active)

COc1cc(S(=O)(=O)N2CCOCC2)ccc1NC(=O)COC(=O)c1ccccn1
IC50 (Prothrombin): 0.545 µM (active)

COCc1cc(C)nc(N2CCN(Cc3ccccc3)CC2)c1C#N
IC50 [1]: 3.15 µM (active) | IC50 [2]: 3.55 µM (active)

COc1ccc(-c2c(C)nn3c(NC4CCCC4)cc(C)nc23)cc1OC
EC50 [3]: > 260 µM (inactive)

Cn1c(Cc2ccccc2)nnc1SCCC(=O)Nc1ccccc1
IC50 [1]: 2.03 µM (active) | IC50 [2]: 4.55 µM (active)

N=c1c(C(=O)NC2CCCCC2)cc2c(=O)n3ccccc3nc2n1Cc1ccc(F)cc1
CC50 [4]: > 40 µM (active) | EC50 [5]: > 300 µM (not active) | EC50 [6]: 13.3 µM (active)

O=C1N(c2ccccc2)CCN1c1ccccc1
EC50 [3]: > 260 µM (inconclusive)

CCOC(=O)CSC1=N/C(=C/c2ccc(-n3cncn3)cc2)C(=O)N1C(C)=O
IC50 (Prothrombin): 0.942 µM (active)

CC1(c2ccccc2)CC2CC(c3ccccc3)N1O2 (centres undefined)
EC50 [3]: > 260 µM (inactive)

Brc1ccc(Oc2nnnn2-c2ccccc2)cc1
IC50 (Protein skinhead-1): 35.1 µM (active)

Cc1cc(NC(=O)Cc2ccsc2)ccc1Br
IC50 (Protein skinhead-1): > 100 µM (inactive)

COC(c1ccccc1)c1nnc(CCC(=O)N(C)Cc2cccc(-n3cccn3)c2)o1 (centres undefined)
IC50 (Prothrombin): > 50 µM (not active)

O=C(C1CCCCC1)N1CCN(S(=O)(=O)c2ccc(Cl)cc2)CC1
IC50 (Protein skinhead-1): > 100 µM (inactive)

O=C(O)CSCC(=O)NCc1cccc(C(F)(F)F)c1
IC50 (Prothrombin): > 50 µM (not active)

Cc1ccc(-c2nn(-c3cc(Cl)ccc3[N+](=O)[O-])c(=O)c3ccccc23)cc1
EC50 [3]: > 260 µM (inactive)

CC(C)(C)[C@@H]1COC(=O)[C@@H](NC(=O)OCC2c3ccccc3-c3ccccc32)C/C=C\C[C@@H](CC(=O)NCCO)C(=O)N1
AC50 [7]: 22.1 µM (active) | AC50 [8]: 26.3 µM (active)

Cc1c(NC(=O)c2cc(-n3cnnc3)ccc2Cl)cccc1-c1nc2ccccc2o1
IC50 [1]: 2.56 µM (active) | IC50 [2]: 2.65 µM (active)

Cc1nc2cc(N)ccc2n1C1CCCCC1
EC50 [5]: > 300 µM (not active) | AC50 [9]: 0.277 µM (active) | EC50 [6]: 4.72 µM (inconclusive)

O=C1CN(CC(=O)N2CCCCC2)c2ccccc2O1
CC50 [4]: 38.6 µM (active)

Cn1cccc1C(=O)OCC(=O)NCCc1ccc(S(N)(=O)=O)cc1
AC50 [10]: 7.13 µM (active) | AC50 [11]: > 70 µM (inactive)

CO[C@H]1CN(C)C(=O)c2cc(NC(=O)C3CCOCC3)ccc2OC[C@H](C)N(Cc2nccs2)C[C@H]1C
AC50 [10]: 24.9 µM (active) | AC50 [11]: 43.3 µM (active)

O=C(CC(=O)N/N=C/c1ccc(O)cc1)N/N=C/c1ccc(O)cc1
IC50 (Large T antigen): 13.8 µM (active) | AC50 [9]: 1.15 µM (active)

Cn1cc(/C=N/NC(=O)c2cc3cc(Br)ccc3o2)c2ccccc21
IC50 [1]: 3.98 µM (active) | IC50 [2]: 39.3 µM (active)

CCOC(=O)CNC(=O)C1(NC(=O)CNC(=O)OCc2ccccc2)CCCC1 (Cbz-Gly-[Ac5c]-Gly-OEt)
AC50 [8]: 49.2 µM (active)
